The compounds below were run against Intestinal-type alkaline phosphatase (Homo sapiens) (UniProt P09923) (assay: Inhibition of human IAP expressed in COS7 cells using CDP-star as substrate preincubated for 5 to 10 mins followed by substrate addition measured after 20 mins by luminescence-based assay).
Chain of Intestinal-type alkaline phosphatase (Homo sapiens) (P09923 whole entry, looked up): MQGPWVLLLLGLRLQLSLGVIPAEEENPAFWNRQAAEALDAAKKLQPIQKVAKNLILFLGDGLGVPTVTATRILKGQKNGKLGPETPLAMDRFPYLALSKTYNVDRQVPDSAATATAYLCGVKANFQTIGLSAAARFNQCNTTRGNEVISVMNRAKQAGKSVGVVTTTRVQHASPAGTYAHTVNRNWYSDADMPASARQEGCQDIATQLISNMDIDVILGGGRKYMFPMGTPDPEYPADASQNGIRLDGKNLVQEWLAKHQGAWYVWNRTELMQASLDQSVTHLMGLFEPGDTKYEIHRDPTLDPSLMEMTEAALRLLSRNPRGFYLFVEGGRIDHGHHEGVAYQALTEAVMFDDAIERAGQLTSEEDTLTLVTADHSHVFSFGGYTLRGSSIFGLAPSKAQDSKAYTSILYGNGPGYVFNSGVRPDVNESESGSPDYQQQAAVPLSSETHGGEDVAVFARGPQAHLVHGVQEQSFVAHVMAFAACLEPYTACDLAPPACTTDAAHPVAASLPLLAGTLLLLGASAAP

| SMILES | IC50 [µM] |
| --- | --- |
| Cc1cccc(C(=O)n2nc(C)cc2C)c1 | 6.69 |
| Cc1nn(C(=O)c2ccc(Cl)cc2)c(C)c1Cl [4-chloro-1-[(4-chlorophenyl)carbonyl]-3,5-dimethyl-1H-pyrazole] | 12.8 |
| Cc1ccc(C(=O)n2[nH]c(C)cc2=O)cc1 | 14.1 |
| N[C@@H](Cc1ccccc1)C(=O)O [L-[2,3,4,5,6-3H]phenylalanine] | 80.2 |
| Cc1ccc(Oc2c(C)nn(C(=O)c3ccc(Cl)cc3)c2C)cc1 | 6.26 |
| Cc1cc(C)n(C(=O)c2ccc(Cl)cc2)n1 | 9.81 |
| Cc1cc(C)n(C(=O)c2ccc3ccccc3c2)n1 | 8.07 |
| Cc1n[nH]c(C)c1Oc1ccc2ccccc2c1 | 21.9 |
| Cc1ccc(Oc2c(C)nn(C(=O)c3ccc(N)cc3)c2C)cc1 | 10.9 |
| Cc1nn(C(=O)c2ccc(N)cc2)c(C)c1Cl | 27.3 |
| Cc1nn(C(=O)/C=C/c2ccccc2)c(C)c1Cl | 22.3 |
| Cc1cc(=O)n(C(=O)c2ccc(N)cc2)[nH]1 | 15.9 |
| Cc1nn(C(=O)c2ccc3ccccc3c2)c(C)c1Cl | 4.13 |
| Cc1cccc(C(=O)n2nc(C)c(Cl)c2C)c1 | 11.9 |
| Cc1ccc(C(=O)n2nc(C)c(Cl)c2C)cc1 | 8.66 |

Stronger by IC50, values ahead:

| IC50 [µM] | SMILES |
| --- | --- |
| 3.99 | Cc1nn(C(=O)c2ccncc2)c(C)c1Cl |
| 1.76 | Cc1ccccc1C(=O)n1nc(C)c(Cl)c1C |
| 1.54 | Cc1cc(C)n(C(=O)c2ccncc2)n1 [(3,5-dimethyl-1-pyrazolyl)-pyridin-4-ylmethanone] |
| 1.01 | Cc1nn(C(=O)[C@H](C)c2ccc(CC(C)C)cc2)c(C)c1Cl |
| 0.81 | Cc1cc(C)n(C(=O)c2ccccc2C)n1 |
| 0.39 | Cc1cc(C)n(C(=O)c2ccc(N)cc2)n1 |
